Columns and labels:
[1] = system: IP-Implanted L1210 Leukemia; experiment: Dose-response against IP-implanted L1210 leukemia, IP treatment Days 1, 5 and 9, 30-day test (Table 2); format: in vivo, CD2Fl male mice
Description: (§1) Biological properties of the compounds of the present invention were determined following the protocol described in Cancer Chemotherapy Reports, Vol. 3, No. 3, 1972 which report is incorporated herein by reference.
(§2) This experiment (A8-00005 3LE31) was conducted at the Southern Research Institute, Birmingham, Ala. under the supervision of Dr. Daniel Griswold. The protocols were the same as those published previously (Geran et al., Cancer Chemotherapy Reports 3: No. 2, 1972 [Attachment 11]). 10^5 cells were implanted intraperitoneally in CD2Fl male mice on Day 0. Drug treatments were given intraperitoneally as single injections at the doses indicated on Days 1, 5 and 9 after tumor implantation. The diluent was saline except for NSC-271674 where 5% sodium bicarbonate was used. All drugs were prepared fresh on the day of injection, and all were administered in solution. Median survival times for both control and drug-treated mice were determined and expressed as a percentage (% T/C). Body weights were determined on Day 5 and expressed as a weight difference (body weight of the drug-treated animals minus that of the control animals in grams) (T-C). The diluent control animals lived a median of 8.4 days and gained 1.9 grams by Day 5 in this experiment. All animals, including Day 30 survivors, were used in the calculation of median survival times. The log10 change in tumor burden refers to the net log change in viable tumor cell population at the end of therapy (Rx) as compared to the start of therapy; e.g., a […] means that there was a […] and a 3 log change means there was a 1000-fold increase in tumor burden at the end of therapy. The tumor burden at the start of therapy was about 6.1×10^5 cells in this experiment.

IP L1210 = experiment: Activity against IP-implanted L1210 leukemia sensitive to cisplatin, 60 day test (Table 4); format: in vivo, Female CD2Fl mice
Description: as §1
(§3) Other known mechanisms of resistance for other classes of agents, such as gene amplification or target enzyme change or amplication, also need to be explored. The experiments summarized in Table 3 were conducted at the same time against both sublines using the same drug preparations. […] These experiments were repeated in a second laboratory as documented in Table 4. However, in these experiments the animals were held for 60 rather than 30 days to evaluate whether or not long-term survivors are produced after drug treatment in a more challenging setting.
as §2
(§4) These experiments (23-00081 3LE31 and 23-00003 3DP3l) were conducted concurrently at the Mason Research Institute, Worcester, MA under the supervision of Dr. William Cobb. See Table 4 for experimental details. The diluent control animals bearing L1210 leukemia lived a median of 8.3 days and gained 1.6 grams by Day 5. […] Female CD2Fl mice were used for these experiments.

IP L1210/Cisplatin = experiment: Activity against IP-implanted L1210/Cisplatin leukemia resistant to cisplatin, 60 day test (Table 4); format: in vivo, Female CD2Fl mice
Description: as §1
as §3, with “setting. […]” for “setting.”
as §4

[2] = system: SC Implanted L1210 Leukemia; experiment: Activity against SC implanted L1210 leukemia following intravenous administration, once daily Days 1-5 (Table 5); format: in vivo, CD2Fl male mice
Description: as §1
In another type of experiment the same platinum complexes were directly compared against the SC implanted L1210 following intravenous administration (Table 5).
This experiment (A8-00004 3LE32) was conducted at the Southern Research Institute, Birmingham, Ala. under the supervision of Dr. Daniel Griswold. The protocols were the same as those published previously (Attachment 11). 10^6 cells were implanted subcutaneously in CD2Fl male mice on Day 0. Drug treatments were given intravenously once daily at the doses indicated on Days 1-5 after tumor implantation. The dosage range tested included the highest and lowest doses indicated in the Table as well as intermediate values which were determined by multiplying each dose in turn by 0.5 starting with the highest dose. The diluent was saline except for NSC-271674 for which 5% sodium bicarbonate was used. All drugs were prepared fresh on the day of injection, and all were administered in solution. Median survival times for both control and drug-treated mice were determined and expressed as a percentage (% T/C). Body weights were determined on Day 5 and expressed as a weight difference (body weight of the drug-treated animals minus that of the control animals in grams) (T-C).

IP L1210 leukemia = experiment: Mouse optimal (highest tolerated) dose, IP L1210 leukemia, Days 1, 5 and 9 schedule (Table 7); format: in vivo
From the text: *IP L1210 leukemia, Days 1, 5 and 9 schedule. Highest tolerated dose in a
least 2 of 3 experiments (i.e,. animal weight difference (testcontrol)

[Cl][Pt-2]1([Cl])([Cl])([Cl])[NH2+][C@@H]2CCCC[C@H]2[NH2+]1 [trans (l), (1R,2R)-Tetrachloro-trans-1,2-cyclohexanediammine platinum (IV)]
30-Day Survivors/Total ([1]; 1 mg/kg/dose IP): 0/6 | Approx. Log10 Change in Tumor Burden at End of Rx ([1]; 1 mg/kg/dose IP): ~2.7 log10 | Body Weight Difference ([1]; 1 mg/kg/dose IP): -0.4 Grams | Median % T/C ([1]; 1 mg/kg/dose IP): 134% | 30-Day Survivors/Total ([1]; 2 mg/kg/dose IP): 0/6 | Approx. Log10 Change in Tumor Burden at End of Rx ([1]; 2 mg/kg/dose IP): ~1.7 log10 | Body Weight Difference ([1]; 2 mg/kg/dose IP): -0.9 Grams | Median % T/C ([1]; 2 mg/kg/dose IP): 170% | 30-Day Survivors/Total ([1]; 4 mg/kg/dose IP): 2/6 | Approx. Log10 Change in Tumor Burden at End of Rx ([1]; 4 mg/kg/dose IP): ~-2.8 log10 | Body Weight Difference ([1]; 4 mg/kg/dose IP): -1.2 Grams | Median % T/C ([1]; 4 mg/kg/dose IP): 238% | 30-Day Survivors/Total ([1]; 8 mg/kg/dose IP): 1/6 | Approx. Log10 Change in Tumor Burden at End of Rx ([1]; 8 mg/kg/dose IP): ~-5.7 log10 | Body Weight Difference ([1]; 8 mg/kg/dose IP): -2.5 Grams | Median % T/C ([1]; 8 mg/kg/dose IP): 319% | Body Weight Difference ([1]; 8 mg/kg/dose IP, listed as trans l): less than -4 Grams | 30-Day Survivors/Total ([1]; 16 mg/kg/dose IP): 0/6 | Approx. Log10 Change in Tumor Burden at End of Rx ([1]; 16 mg/kg/dose IP): ~3.0 log10 | Body Weight Difference ([1]; 16 mg/kg/dose IP): -3.5 Grams | Median % T/C ([1]; 16 mg/kg/dose IP): 119% | Optimal dose (dose producing best therapeutic response) ([1]; day 1, 5 and 9 schedule): 8 mg/kg/injection | 60 Day Survivors/Total (IP L1210; 1 mg/kg/dose): 0/10 | Body Weight Difference (IP L1210; 1 mg/kg/dose): -0.4 Grams | Median % T/C (IP L1210; 1 mg/kg/dose): 146% | 60 Day Survivors/Total (IP L1210; 2 mg/kg/dose): 2/10 | Body Weight Difference (IP L1210; 2 mg/kg/dose): -0.8 Grams | Median % T/C (IP L1210; 2 mg/kg/dose): 216% | 60 Day Survivors/Total (IP L1210; 4 mg/kg/dose): 0/10 | Body Weight Difference (IP L1210; 4 mg/kg/dose): -2.2 Grams | Median % T/C (IP L1210; 4 mg/kg/dose): 208% | 60 Day Survivors/Total (IP L1210; 8 mg/kg/dose): 1/10 | Body Weight Difference (IP L1210; 8 mg/kg/dose): -3.7 Grams | Median % T/C (IP L1210; 8 mg/kg/dose): 228% | 60 Day Survivors/Total (IP L1210; 16 mg/kg/dose): 0/10 | Body Weight Difference (IP L1210; 16 mg/kg/dose): -5.9 Grams | Median % T/C (IP L1210; 16 mg/kg/dose): Toxic | 60 Day Survivors/Total (IP L1210/Cisplatin; 1 mg/kg/dose): 0/10 | Body Weight Difference (IP L1210/Cisplatin; 1 mg/kg/dose): -1.1 Grams | Median % T/C (IP L1210/Cisplatin; 1 mg/kg/dose): 132% | 60 Day Survivors/Total (IP L1210/Cisplatin; 2 mg/kg/dose): 4/10 | Body Weight Difference (IP L1210/Cisplatin; 2 mg/kg/dose): -0.8 Grams | Median % T/C (IP L1210/Cisplatin; 2 mg/kg/dose): 239% | 60 Day Survivors/Total (IP L1210/Cisplatin; 4 mg/kg/dose): 3/8 | Body Weight Difference (IP L1210/Cisplatin; 4 mg/kg/dose): -1.7 Grams | Median % T/C (IP L1210/Cisplatin; 4 mg/kg/dose): 376% | 60 Day Survivors/Total (IP L1210/Cisplatin; 8 mg/kg/dose): 0/10 | Body Weight Difference (IP L1210/Cisplatin; 8 mg/kg/dose): -3.5 Grams | Median % T/C (IP L1210/Cisplatin; 8 mg/kg/dose): 133% | 60 Day Survivors/Total (IP L1210/Cisplatin; 16 mg/kg/dose): 0/10 | Body Weight Difference (IP L1210/Cisplatin; 16 mg/kg/dose): -7.3 Grams | Median % T/C (IP L1210/Cisplatin; 16 mg/kg/dose): Toxic | Optimal Dose ([2]; IV once daily Days 1-5): 2.5 mg/kg/inj | Mouse Optimal Dose (highest tolerated dose in at least 2 of 3 experiments) (IP L1210 leukemia): 8 mg/kg

N[C@@H]1CCCC[C@H]1N.O=C([O-])c1ccc(C(=O)[O-])c(C(=O)[O-])c1.[H+].[Pt+2] [Carboxyphthalato Platinum, carboxyphthalatocyclohexanediamine platinum (II), reference compound]
30-Day Survivors/Total ([1]; 3.13 mg/kg/dose IP): 0/6 | Approx. Log10 Change in Tumor Burden at End of Rx ([1]; 3.13 mg/kg/dose IP): ~2.5 log10 | Body Weight Difference ([1]; 3.13 mg/kg/dose IP): -0.5 Grams | Median % T/C ([1]; 3.13 mg/kg/dose IP): 146% | 30-Day Survivors/Total ([1]; 6.25 mg/kg/dose IP): 0/6 | Approx. Log10 Change in Tumor Burden at End of Rx ([1]; 6.25 mg/kg/dose IP): ~2.3 log10 | Body Weight Difference ([1]; 6.25 mg/kg/dose IP): -0.8 Grams | Median % T/C ([1]; 6.25 mg/kg/dose IP): 154% | 30-Day Survivors/Total ([1]; 12.5 mg/kg/dose IP): 2/6 | Approx. Log10 Change in Tumor Burden at End of Rx ([1]; 12.5 mg/kg/dose IP): -5.7 log10 | Body Weight Difference ([1]; 12.5 mg/kg/dose IP): -2.1 Grams | Median % T/C ([1]; 12.5 mg/kg/dose IP): 309% | 30-Day Survivors/Total ([1]; 25 mg/kg/dose IP): 4/6 | Approx. Log10 Change in Tumor Burden at End of Rx ([1]; 25 mg/kg/dose IP): -5.7 log10 | Body Weight Difference ([1]; 25 mg/kg/dose IP): -1.5 Grams | Median % T/C ([1]; 25 mg/kg/dose IP): 357% | 30-Day Survivors/Total ([1]; 50 mg/kg/dose IP): 2/6 | Approx. Log10 Change in Tumor Burden at End of Rx ([1]; 50 mg/kg/dose IP): -5.7 log10 | Body Weight Difference ([1]; 50 mg/kg/dose IP): -5.0 Grams | Median % T/C ([1]; 50 mg/kg/dose IP): 345% | Body Weight Difference ([1]; 50 mg/kg/dose IP, listed as carboxyphthalato cyclohexanediamine platinum (II)): more than -4 Grams | 60 Day Survivors/Total (IP L1210; 3.13 mg/kg/dose): 2/10 | Body Weight Difference (IP L1210; 3.13 mg/kg/dose): -2.3 Grams | Median % T/C (IP L1210; 3.13 mg/kg/dose): 280% | 60 Day Survivors/Total (IP L1210; 6.25 mg/kg/dose): 2/10 | Body Weight Difference (IP L1210; 6.25 mg/kg/dose): -3.5 Grams | Median % T/C (IP L1210; 6.25 mg/kg/dose): 313% | 60 Day Survivors/Total (IP L1210; 12.5 mg/kg/dose): 0/10 | Body Weight Difference (IP L1210; 12.5 mg/kg/dose): -6.0 Grams | Median % T/C (IP L1210; 12.5 mg/kg/dose): Toxic | 60 Day Survivors/Total (IP L1210; 25 mg/kg/dose): 0/10 | Median % T/C (IP L1210; 25 mg/kg/dose): Toxic | 60 Day Survivors/Total (IP L1210; 50 mg/kg/dose): 0/10 | Median % T/C (IP L1210; 50 mg/kg/dose): Toxic | 60 Day Survivors/Total (IP L1210/Cisplatin; 3.13 mg/kg/dose): 6/10 | Body Weight Difference (IP L1210/Cisplatin; 3.13 mg/kg/dose): -1.2 Grams | Median % T/C (IP L1210/Cisplatin; 3.13 mg/kg/dose): 645% | 60 Day Survivors/Total (IP L1210/Cisplatin; 6.25 mg/kg/dose): 2/10 | Body Weight Difference (IP L1210/Cisplatin; 6.25 mg/kg/dose): -2.9 Grams | Median % T/C (IP L1210/Cisplatin; 6.25 mg/kg/dose): 236% | 60 Day Survivors/Total (IP L1210/Cisplatin; 12.5 mg/kg/dose): 0/10 | Body Weight Difference (IP L1210/Cisplatin; 12.5 mg/kg/dose): -5.5 Grams | Median % T/C (IP L1210/Cisplatin; 12.5 mg/kg/dose): Toxic | 60 Day Survivors/Total (IP L1210/Cisplatin; 25 mg/kg/dose): 0/10 | Body Weight Difference (IP L1210/Cisplatin; 25 mg/kg/dose): -3.7 Grams | Median % T/C (IP L1210/Cisplatin; 25 mg/kg/dose): Toxic | 60 Day Survivors/Total (IP L1210/Cisplatin; 50 mg/kg/dose): 0/10 | Median % T/C (IP L1210/Cisplatin; 50 mg/kg/dose): Toxic | Body Weight Difference ([2]; 6.25 mg/kg/inj IV): -2.6 Grams | Median % T/C ([2]; 6.25 mg/kg/inj IV): 124% | Median Survival Time ([2]; 6.25 mg/kg/inj IV): 12.8 days | Body Weight Difference ([2]; 12.5 mg/kg/inj IV): -6.1 Grams | Median % T/C ([2]; 12.5 mg/kg/inj IV): 165% | Median Survival Time ([2]; 12.5 mg/kg/inj IV): 17.0 days | HNTD (highest nontoxic dose; animal weight difference ≥ -4.0 grams) ([2]; IV once daily Days 1-5): 6.25 mg/kg/inj | Optimal Dose ([2]; IV once daily Days 1-5): 12.5 mg/kg/inj | Mouse Optimal Dose (highest tolerated dose in at least 2 of 3 experiments) (IP L1210 leukemia): 12.5 mg/kg
